The target in one assay is T1, mGLP1R (Mus musculus, UniProt O35659).
T1 construct: expressed in transfected cells; host or cells: AD293 cells, transient transfection (Lipofectamine 2000)
T1 sequence (O35659 22-463): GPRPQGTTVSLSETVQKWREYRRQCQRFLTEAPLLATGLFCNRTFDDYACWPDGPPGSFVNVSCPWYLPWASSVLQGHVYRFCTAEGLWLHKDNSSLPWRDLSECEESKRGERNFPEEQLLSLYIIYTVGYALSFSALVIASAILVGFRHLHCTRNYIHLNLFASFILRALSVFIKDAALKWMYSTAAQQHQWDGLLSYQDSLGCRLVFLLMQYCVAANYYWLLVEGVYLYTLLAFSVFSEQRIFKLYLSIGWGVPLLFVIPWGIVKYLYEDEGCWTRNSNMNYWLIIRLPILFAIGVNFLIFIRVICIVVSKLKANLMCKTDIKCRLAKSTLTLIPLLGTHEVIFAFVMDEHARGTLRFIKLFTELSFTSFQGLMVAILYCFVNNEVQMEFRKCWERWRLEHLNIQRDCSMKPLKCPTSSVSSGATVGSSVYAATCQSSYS
Put plainly: HTRF cAMP assay in transiently transfected AD293 cells. It counts as cell-based. The settings on record: 30 min 37 °C, n = 4 independent repeats, Extended Data Table 1, read-out: mGLP1R EC50 best-fit. (In TR-FRET formats the signal depends on donor and acceptor labels being close together.)

The target of the next assay is T2, hGIPR (Homo sapiens, UniProt P48546).
T2 construct: expressed in transfected cells; host or cells: AD293 cells, transient transfection (Lipofectamine 2000)
T2 sequence (P48546 22-466): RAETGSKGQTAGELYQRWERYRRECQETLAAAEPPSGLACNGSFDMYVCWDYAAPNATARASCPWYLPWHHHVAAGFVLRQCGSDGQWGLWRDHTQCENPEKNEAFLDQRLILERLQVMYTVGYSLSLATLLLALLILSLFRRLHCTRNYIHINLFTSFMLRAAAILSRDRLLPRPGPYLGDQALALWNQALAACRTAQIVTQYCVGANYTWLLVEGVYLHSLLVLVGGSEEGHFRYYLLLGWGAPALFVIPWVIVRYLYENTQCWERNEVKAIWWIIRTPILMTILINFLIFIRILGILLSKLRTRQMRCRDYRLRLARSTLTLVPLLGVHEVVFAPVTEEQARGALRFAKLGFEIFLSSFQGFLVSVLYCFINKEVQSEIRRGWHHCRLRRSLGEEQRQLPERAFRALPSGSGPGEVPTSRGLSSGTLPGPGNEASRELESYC
The description is as above. It counts as cell-based. The note with it: 30 min 37 °C, n = 4 independent repeats, Extended Data Table 1, read-out: hGIPR EC50 best-fit. The method, then: (§1) AD293 cells (RRID:CVCL_9804) were transiently transfected 24 h before the assay in six-well plates with plasmids encoding wild-type hGLP1R, mGLP1R, hGIPR or mGIPR using Lipofectamine 2000. AD293 cells were authenticated at source using STR profiling. Cells were detached and treated with a range of agonist concentrations in serum-free DMEM + 0.1% BSA for 30 min at 37 °C in 96-well plates, followed by the addition of lysis buffer 2 (Cisbio) at a 1:2 ratio. Lysates were further diluted 1:10 to avoid spectral interference from the higher concentrations of fluorescent ligands in the HTRF assay, and the concentration of cAMP was determined after the addition of cAMP Dynamic detection reagents (Cisbio).

Another assay has as its target T3, mGIPR (Mus musculus, UniProt Q0P543).
T3 construct: expressed in transfected cells; host or cells: AD293 cells, transient transfection (Lipofectamine 2000)
T3 sequence (Q0P543 19-460): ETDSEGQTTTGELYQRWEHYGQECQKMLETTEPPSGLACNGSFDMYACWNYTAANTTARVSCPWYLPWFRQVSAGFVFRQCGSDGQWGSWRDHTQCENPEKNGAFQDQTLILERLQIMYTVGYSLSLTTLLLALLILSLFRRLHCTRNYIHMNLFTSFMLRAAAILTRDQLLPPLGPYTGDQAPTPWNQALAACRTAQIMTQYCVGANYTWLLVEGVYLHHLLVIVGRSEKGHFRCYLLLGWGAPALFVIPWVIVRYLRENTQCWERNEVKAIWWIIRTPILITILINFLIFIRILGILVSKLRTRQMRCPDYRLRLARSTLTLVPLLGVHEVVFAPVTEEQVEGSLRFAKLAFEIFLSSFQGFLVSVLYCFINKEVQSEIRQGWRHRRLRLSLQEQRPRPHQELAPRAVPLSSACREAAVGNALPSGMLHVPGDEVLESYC
The description is as above. The format is cell-based. The settings on record: cAMP, AD293 cells, 30 min 37 °C, n = 4 independent repeats; Extended Data Table 1; read-out: mGIPR EC50 best-fit. The method, then:
as §1

The target in another assay is T4, GIP(1-42) (Homo sapiens, UniProt P09681).
T4 chain: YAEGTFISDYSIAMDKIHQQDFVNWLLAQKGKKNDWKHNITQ
Briefly: competition.

Several values for one entry are separate records, joined by “and”; a condition that tells them apart may be missing. Equal entries are not always repeated.

One may read the EC50 as the concentration that produces a half-maximal response. For the molecule `CC[C@H](C)[C@H](NC(=O)[C@H](CC(C)C)NC(=O)[C@H](Cc1c[nH]c2ccccc12)NC(=O)[C@H](CCC(N)=O)NC(=O)[C@@H](NC(=O)[C@H](Cc1ccccc1)NC(=O)[C@H](C)NC(=O)[C@H](CCCCNC(=O)COCCOCCNC(=O)COCCOCCNC(=O)CC[C@H](NC(=O)CCCCCCCCCCCCCCCCCCC(=O)O)C(=O)O)NC(=O)[C@H](CCC(N)=O)NC(=O)[C@H](C)NC(=O)[C@@H](NC(=O)[C@H](CCCCN)NC(=O)[C@H](CC(=O)O)NC(=O)[C@H](CC(C)C)NC(=O)C(C)(C)NC(=O)[C@@H](NC(=O)[C@H](CO)NC(=O)[C@H](Cc1ccc(O)cc1)NC(=O)[C@H](CC(=O)O)NC(=O)[C@H](CO)NC(=O)[C@@H](NC(=O)[C@H](Cc1ccccc1)NC(=O)[C@@H](NC(=O)CNC(=O)[C@H](CCC(=O)O)NC(=O)C(C)(C)NC(=O)[C@@H](N)Cc1ccc(O)cc1)[C@@H](C)O)[C@@H](C)O)[C@@H](C)CC)[C@@H](C)CC)C(C)C)C(=O)N[C@@H](C)C(=O)NCC(=O)NCC(=O)N1CCC[C@H]1C(=O)N[C@@H](CO)C(=O)N[C@@H](CO)C(=O)NCC(=O)N[C@@H](C)C(=O)N1CCC[C@H]1C(=O)N1CCC[C@H]1C(=O)N1CCC[C@H]1C(=O)N[C@@H](CO)C(N)=O` [tirzepatide], the values for the EC50 at mGLP1R, at hGIPR and at mGIPR were 29.4 nM, 0.641 nM and 112 nM, respectively.

B1: GIPR (protein)
chain: T2 sequence (P48546 22-466)
One may read the Ki as a measure of affinity in units of concentration, obtained from inhibition or displacement. B1: the Ki with GIP(1-42) is 13.9 nM and 9.38 nM.

The values above are taken from publication PMC12373499 (Nature Metabolism, 2025).
